According to US20190216761A1, “COMPOSITIONS COMPRISING 15-HEPE AND METHODS OF USING THE SAME” (Afimmune Limited, priority 2015, published 2019):
Residue numbers refer to the chain shown, from its start. Marks after values point to notes of the source that are not given here.

Legend:
rPPARδ [1] = experiment: PPAR agonist reporter assay (Gal4 hybrid receptor, luciferase); assay type: cell-based, rat
Description: (§1) This study utilized proprietary reporter cells expressing a hybrid receptor comprising the N-terminal Gal4 DNA binding domain fused to the ligand binding domain of the specific human nuclear receptor (hPPARα, hPPARδ, and hPPARγ) and rat nuclear receptor (rPPARα, rPPARδ, and rPPARγ). The reporter vectors used in this Example comprise the firefly luciferase gene functionally linked to the Gal4 upstream activation sequence.
(§2) Nuclear Receptor assay was performed by dispensing 100 μL of a suspension of Reporter Cells in Cell Recovery Medium (CRM) containing 10% charcoal stripped FBS into each well of a white 96-well plate. Test compounds were diluted using compound screening medium (CSM) containing 10% charcoal stripped FBS to generate “2×-concentration” treatment media. Immediately after this dilution step, 100 μL of each diluted 2×-concentration treatment medium was dispensed (in triplicate) into the Reporter Cell-containing assay wells.
(§3) After incubation at 37° C. for 24 hours, the treatment media was discarded. 100 μL of Luciferase Detection Reagent substrate was added to each well and RLUs were quantified from each well to determine nuclear receptor activities.

rPPARα Reporter Cells = experiment: Live cell multiplex assay; assay type: cell-based
Description: as §1
(§4) Nuclear Receptor assay was performed by suspending Reporter Cells in CRM containing 10% charcoal stripped FBS. 2×-EC80 concentrations of the appropriate reference agonist were then added to the Reporter Cell suspension, and 100 μL of the mixture dispensed into wells of a white 96-well plate. Test compounds were diluted using compound screening medium (CSM) containing 10% charcoal stripped FBS to generate “2×-concentration” treatment media. Immediately after this dilution step, 100 μL of each diluted 2×-concentration treatment medium was dispensed (in triplicate) into the Reporter Cell-containing assay wells.
(§5) After incubation at 37° C. for 24 hours, the treatment media was discarded. Each well was rinsed once with LCM Buffer; LCM substrate was then added. After incubation for 30 minutes at 37° C., fluorescence was measured to determine the relative number of live cells per assay well. LCM substrate was then discarded and 100 μL of Luciferase Detection Reagent substrate was added to each well. RLUs were quantified from each well to determine nuclear receptor activities.

rPPARδ Reporter Cells = experiment: Live cell multiplex assay; assay type: cell-based
Description: as §1, §4, §5

hPPARγ Reporter Cells = experiment: Live cell multiplex assay; assay type: cell-based
Description: as §1, §4, §5

rPPARγ Reporter Cells = experiment: Live cell multiplex assay; assay type: cell-based
Description: as §1, §4, §5

rPPARγ = biological target: T1, rPPARγ (Rattus norvegicus, UniProt O88275); experiment: PPAR agonist reporter assay (Gal4 hybrid receptor, luciferase); assay type: cell-based
T1 construct: expressed in transfected cells
T1 sequence (O88275 238-503 limits assumed): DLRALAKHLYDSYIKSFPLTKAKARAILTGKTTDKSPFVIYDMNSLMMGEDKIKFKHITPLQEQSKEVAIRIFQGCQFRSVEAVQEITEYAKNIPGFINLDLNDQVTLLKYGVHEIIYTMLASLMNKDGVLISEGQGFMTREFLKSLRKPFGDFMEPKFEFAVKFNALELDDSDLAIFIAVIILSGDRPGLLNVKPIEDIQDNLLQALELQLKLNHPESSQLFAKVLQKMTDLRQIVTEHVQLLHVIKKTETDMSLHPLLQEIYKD
Description: as §1, §2, §3

hPPARγ = biological target: T2, hPPARγ (Homo sapiens, UniProt P37231); experiment: as above; assay type: cell-based
T2 construct: expressed in transfected cells
T2 sequence (P37231 238-503 limits assumed): T1 sequence (O88275 238-503 limits assumed) with N93S, I98V, V226L, H245Q
Description: as §1, §2, §3

rPPARδ [2] = experiment: PPAR antagonist reporter assay (reference agonist at EC80); assay type: cell-based, rat
Description: as §1, §4, §5

CC/C=C\C/C=C\C/C=C\C/C=C\C/C=C\CCCC(=O)OCC [EPA-EE, EPA ethyl ester, reference compound]
Fold-Activation (vs. 0.10% DMSO) rPPAR-δ (rPPARδ [1]; 137 nM): 1.3 fold
Fold-Activation (vs. 0.10% DMSO) rPPAR-δ (rPPARδ [1]; 412 nM): 1.3 fold
Fold-Activation (vs. 0.10% DMSO) rPPAR-δ (rPPARδ [1]; 1,235 nM): 1.2 fold
Fold-Activation (vs. 0.10% DMSO) rPPAR-δ (rPPARδ [1]; 3,704 nM): 1.5 fold
Fold-Activation (vs. 0.10% DMSO) rPPAR-δ (rPPARδ [1]; 11,111 nM): 1.4 fold
Fold-Activation (vs. 0.10% DMSO) rPPAR-δ (rPPARδ [1]; 33,333 nM): 1.5 fold
Fold-Activation (vs. 0.10% DMSO) rPPAR-δ (rPPARδ [1]; 100,000 nM): 2.0 fold
Fold-Activation (vs. 0.10% DMSO) rPPAR-δ (rPPARδ [1]; 300,000 nM): 3.6* fold
% Live cells vs. 0.10% DMSO, rPPAR-α (rPPARα Reporter Cells; 137 nM): 89%
% Live cells vs. 0.10% DMSO, rPPAR-α (rPPARα Reporter Cells; 412 nM): 98%
% Live cells vs. 0.10% DMSO, rPPAR-α (rPPARα Reporter Cells; 1,235 nM): 102%
% Live cells vs. 0.10% DMSO, rPPAR-α (rPPARα Reporter Cells; 3,704 nM): 103%
% Live cells vs. 0.10% DMSO, rPPAR-α (rPPARα Reporter Cells; 11,111 nM): 102%
% Live cells vs. 0.10% DMSO, rPPAR-α (rPPARα Reporter Cells; 33,333 nM): 100%
% Live cells vs. 0.10% DMSO, rPPAR-α (rPPARα Reporter Cells; 100,000 nM): 95%
% Live cells vs. 0.10% DMSO, rPPAR-α (rPPARα Reporter Cells; 300,000 nM): 94%
% Live cells vs. 0.10% DMSO, rPPAR-δ (rPPARδ Reporter Cells; 137 nM): 100%
% Live cells vs. 0.10% DMSO, rPPAR-δ (rPPARδ Reporter Cells; 412 nM): 94%
% Live cells vs. 0.10% DMSO, rPPAR-δ (rPPARδ Reporter Cells; 1,235 nM): 98%
% Live cells vs. 0.10% DMSO, rPPAR-δ (rPPARδ Reporter Cells; 3,704 nM): 95%
% Live cells vs. 0.10% DMSO, rPPAR-δ (rPPARδ Reporter Cells; 11,111 nM): 100%
% Live cells vs. 0.10% DMSO, rPPAR-δ (rPPARδ Reporter Cells; 33,333 nM): 99%
% Live cells vs. 0.10% DMSO, rPPAR-δ (rPPARδ Reporter Cells; 100,000 nM): 101%
% Live cells vs. 0.10% DMSO, rPPAR-δ (rPPARδ Reporter Cells; 300,000 nM): 102%
% Live cells vs. 0.10% DMSO, hPPAR-γ (hPPARγ Reporter Cells; 137 nM): 88%
% Live cells vs. 0.10% DMSO, hPPAR-γ (hPPARγ Reporter Cells; 412 nM): 99%
% Live cells vs. 0.10% DMSO, hPPAR-γ (hPPARγ Reporter Cells; 1,235 nM): 101%
% Live cells vs. 0.10% DMSO, hPPAR-γ (hPPARγ Reporter Cells; 3,704 nM): 101%
% Live cells vs. 0.10% DMSO, hPPAR-γ (hPPARγ Reporter Cells; 11,111 nM): 101%
% Live cells vs. 0.10% DMSO, hPPAR-γ (hPPARγ Reporter Cells; 33,333 nM): 102%
% Live cells vs. 0.10% DMSO, hPPAR-γ (hPPARγ Reporter Cells; 100,000 nM): 103%
% Live cells vs. 0.10% DMSO, hPPAR-γ (hPPARγ Reporter Cells; 300,000 nM): 92%
% Live cells vs. 0.10% DMSO, rPPAR-γ (rPPARγ Reporter Cells; 137 nM): 97%
% Live cells vs. 0.10% DMSO, rPPAR-γ (rPPARγ Reporter Cells; 412 nM): 101%
% Live cells vs. 0.10% DMSO, rPPAR-γ (rPPARγ Reporter Cells; 1,235 nM): 102%
% Live cells vs. 0.10% DMSO, rPPAR-γ (rPPARγ Reporter Cells; 3,704 nM): 101%
% Live cells vs. 0.10% DMSO, rPPAR-γ (rPPARγ Reporter Cells; 11,111 nM): 100%
% Live cells vs. 0.10% DMSO, rPPAR-γ (rPPARγ Reporter Cells; 33,333 nM): 101%
% Live cells vs. 0.10% DMSO, rPPAR-γ (rPPARγ Reporter Cells; 100,000 nM): 98%
% Live cells vs. 0.10% DMSO, rPPAR-γ (rPPARγ Reporter Cells; 300,000 nM): 102%
Fold-Activation (vs. 0.10% DMSO) rPPAR-γ (rPPARγ; 137 nM): 0.90 fold
Fold-Activation (vs. 0.10% DMSO) rPPAR-γ (rPPARγ; 412 nM): 0.94 fold
Fold-Activation (vs. 0.10% DMSO) rPPAR-γ (rPPARγ; 1,235 nM): 0.99 fold
Fold-Activation (vs. 0.10% DMSO) rPPAR-γ (rPPARγ; 3,704 nM): 0.97 fold
Fold-Activation (vs. 0.10% DMSO) rPPAR-γ (rPPARγ; 11,111 nM): 0.97 fold
Fold-Activation (vs. 0.10% DMSO) rPPAR-γ (rPPARγ; 33,333 nM): 0.99 fold
Fold-Activation (vs. 0.10% DMSO) rPPAR-γ (rPPARγ; 100,000 nM): 1.0 fold
Fold-Activation (vs. 0.10% DMSO) rPPAR-γ (rPPARγ; 300,000 nM): 2.1* fold
Fold-Activation (vs. 0.10% DMSO) hPPAR-γ (hPPARγ; 137 nM): 0.90 fold
Fold-Activation (vs. 0.10% DMSO) hPPAR-γ (hPPARγ; 412 nM): 0.94 fold
Fold-Activation (vs. 0.10% DMSO) hPPAR-γ (hPPARγ; 1,235 nM): 0.94 fold
Fold-Activation (vs. 0.10% DMSO) hPPAR-γ (hPPARγ; 3,704 nM): 0.88 fold
Fold-Activation (vs. 0.10% DMSO) hPPAR-γ (hPPARγ; 11,111 nM): 1.0 fold
Fold-Activation (vs. 0.10% DMSO) hPPAR-γ (hPPARγ; 33,333 nM): 0.78 fold
Fold-Activation (vs. 0.10% DMSO) hPPAR-γ (hPPARγ; 100,000 nM): 1.2 fold
Fold-Activation (vs. 0.10% DMSO) hPPAR-γ (hPPARγ; 300,000 nM): 2.8* fold
% Inhibition of agonist-stimulated receptor activity vs. 0.10% DMSO, rPPAR-δ (rPPARδ [2]; 137 nM): 26%
% Inhibition of agonist-stimulated receptor activity vs. 0.10% DMSO, rPPAR-δ (rPPARδ [2]; 412 nM): 4.0%
% Inhibition of agonist-stimulated receptor activity vs. 0.10% DMSO, rPPAR-δ (rPPARδ [2]; 1,235 nM): 5.7%
% Inhibition of agonist-stimulated receptor activity vs. 0.10% DMSO, rPPAR-δ (rPPARδ [2]; 3,704 nM): 8.1%
% Inhibition of agonist-stimulated receptor activity vs. 0.10% DMSO, rPPAR-δ (rPPARδ [2]; 11,111 nM): 3.7%
% Inhibition of agonist-stimulated receptor activity vs. 0.10% DMSO, rPPAR-δ (rPPARδ [2]; 33,333 nM): 7.2%
% Inhibition of agonist-stimulated receptor activity vs. 0.10% DMSO, rPPAR-δ (rPPARδ [2]; 100,000 nM): 10%
% Inhibition of agonist-stimulated receptor activity vs. 0.10% DMSO, rPPAR-δ (rPPARδ [2]; 300,000 nM): 36%
inhibition of rat PPARs (in words), rPPARδ (rPPARδ [2]; at higher test concentrations): does not exhibit similar inhibitory activity
